From article PMC9045377, “CpxA Phosphatase Inhibitor Activates CpxRA and Is a Potential Treatment for Uropathogenic Escherichia coli in a Murine Model of Infection” (Microbiology Spectrum, 2022)
pEC50: −log10 of the molar value. “And” between values parts separate entries of the source, which are not always exact repeats. Equal values may be shown once.

Columns and labels:
CpxRA [1] = experiment: E. coli CpxR β-galactosidase reporter assay for CpxRA activation (reporter strain PAD282); format: cell-based, Escherichia coli
Procedure: E. coli strain CFT073 and its derivative CFT073ΔcpxA::cat were described previously and maintained on Luria broth (LB) plates at 37°C ([30]). The E. coli PcpxP′-lacZ reporter strain, PAD282, was the gift of Thomas Silhavy (Princeton University, Princeton, NJ, USA) and was maintained on TB plates at 37°C ([31]). HepG2 hepatocellular carcinoma cells were the gift of Andy Yu (Indiana University, Indianapolis, IN) and were grown in RPMI […] medium (Gibco) containing 10% fetal calf serum (HyClone) and 1 mM sodium pyruvate (Sigma) at 37°C with 5% CO2 as described ([31]).
Compounds 1 and 6 were purchased from ChemDiv and Aurum Pharmatech, respectively ([31], [32]). Compound 26 was synthesized and purified by the Duerfeldt laboratory as described ([32]). All compounds were dissolved in DMSO prior to use in this assay. The EC50 values for each compound were determined by measuring the β-galactosidase activity of the reporter strain PAD282 as previously reported ([31]). Briefly, PAD282 was cultured overnight in TB medium with 0.4% glucose and diluted into a 384-well plate, which contained the compounds in concentrations ranging from 0 to 160 μM, and incubated for 5 h at 37°C with no shaking. The All-in-One β-galactosidase reagent (Pierce) was added and the OD420, OD550, and OD600 of the wells were measured by a SpectraMax 384 plate reader. EC50 values were determined from 3 separate experiments done in triplicate using GraphPad Prism software using a nonlinear fit model. In some experiments, EC50 values were determined in the presence and absence of 10% human AB serum (Sigma).

CpxRA [2] = system: CpxRA; set-up: method as in PMID 31104993; conditions: β-galactosidase reporter assay in E. coli; read-out: mean 50% effective concentration (EC50), CpxRA activation; cited from earlier work
[3] = Toxicity / clinical signs in mice; format: in vivo, female CBA/J mice
Procedure: We tested our initial hit, compound 1 ([31]) (Fig. 1), for toxicity in a murine model using criteria described in Materials and Methods. […] To test compound 1 for efficacy, female CBA/J mice were transurethrally inoculated with ∼1 × 10^8 CFU of UPEC strain CFT073; 12 h later, mice were treated with 100 mg/kg compound 1 (n = 10) or the vehicle control (n = 5) s.c. twice a day for 3 days and then sacrificed 4 h after the last dose. No effect was seen on the recovery of E. coli CFT073 in the urine, bladder, or kidneys (see Fig. S1 in the supplemental material). As compound 1 lacked efficacy, we aimed to improve the scaffold to enhance potency and eliminate the nitro group liability ([32]).
We developed a high-performance liquid chromatography-tandem mass spectrometry (HPLC-MS/MS) assay to measure compound 6 with a lower limit of quantification of 1 ng/mL. Single-dose PK parameters of compound 6 were determined in female CBA/J mice (n = 15) given 100 mg/kg s.c. dissolved in the vehicle. Blood was obtained from groups of 3 mice 1, 2, 4, 8, and 24 h postinjection.
Animal experiments were conducted according to the guidelines of the Indiana University School of Medicine Institutional Animal Care and Use Committee by the IU Simon Comprehensive Cancer Center In Vivo Therapeutics Core, a component of the Indiana Clinical Translational Science Institute. For the pilot toxicity study with compound 1, 4- to 6-week-old CBA/J female mice were obtained from Jackson Laboratory (Bar Harbor, ME) and were treated with compound 1 or the vehicle control twice a day for 3 days as described in the results. […] Toxicity was determined by the following criteria: deteriorating health-hunched posture, lack of grooming, failure to thrive, failure to eat and drink for >48 h, rapid loss of 15 to 20% body weight, inactivity with hunched posture, loss of righting reflex and inability to maintain upright posture, loss of general body condition with spine becoming visible, and dehiscence of wounds and/or evidence of infection at injection sites not responsive to veterinary treatment.

[4] = infected mice, 100 mg/kg s.c. at 12, 36, 60 h

Structure (SMILES) | effect of 10% human AB serum on activity in the reporter assay (CpxRA [1]; 10% human AB serum present vs absent) | fold lower EC50 (more potent) than compound 1 (CpxRA [1]; reporter assay) | concentration for peak activation of CpxR (CpxRA [1]; reporter assay, Fig. S2) [µM] | pEC50 (CpxRA [2]) | clinical signs during efficacy trial [3, 4] | clinical signs of toxicity at 24 h ([3]; single dose 100 mg/kg s.c.) | tremors ([3]; single dose 100 mg/kg s.c., n = 15, one mouse from 30 min (severe at 2 h), six mice after 1 h) | clinical signs, all treated mice ([3]; single dose 100 mg/kg s.c., from 10 min after injection to the 8-h time point) | fold lower EC50 (more potent) than compound 6 (CpxRA [1]; reporter assay) [fold] | signs of toxicity during efficacy trial [3, 4]
NC1CCCc2c1[nH]c1ccc(F)cc21 (centres unmarked) [compound 6] | not affected | 3.2 fold and 3 fold | 10 | 5.11 | None of the compound 6-treated animals exhibited decreased activity, tremors, or squinting | No mice showed clinical signs of toxicity | slight tremors | slightly decreased activity and squinting |  | 
N[C@@H]1CCCc2c1[nH]c1cc(F)c(F)cc21 [compound 26] |  |  |  | 5.96 |  |  |  |  | ~7 | None of the compound 26-treated animals exhibited signs of toxicity
